“Also recorded” adds a separate entry of the source.
Assays:
Huh7 D12 = experiment: Antiproliferative assay, Huh7 D12; type: cell-based, human
Description: (§1) The potential antiproliferative activity of these novel 3-(N-phenylmethyliden)amino-4-imino-3,5-dihydro-4H-chromeno[2,3-d]pyrimidine 10(a-i) and 10-(N-phenylmethyliden)amino-11-imino-11H-naphto[1′,2′:5,6]pyrano[2,3-d]pyrimidine 10(j-l) was evaluated in a panel of eight tumoral cell lines and in diploid skin fibroblasts used as normal cell lines for control. For these antitumor assays, chosen cell lines represent diverse types of human cancer, which are, respectively, human hepatocellular carcinoma (Huh7 D12), human colon adenocarcinoma (Caco2), human breast adenocarcinoma (MDA-MB231), MDA-MB468 for human breast carcinoma which correspond to the Triple Negative Breast Cancer (TNBC), human colon carcinoma (HCT116), PC3 as cell line initiated from bone metastasis of grade IV prostatic adenocarcinoma from a person, MCF7 as breast cancer line isolated from a person and PANC1, as human pancreatic cancer cell line. The potential antiproliferative activity was preliminarily evaluated in vitro at a 25 μM single dose.
(§2) The IC50 was calculated from the full dose-response curve and used as a parameter for the antiproliferative activity of the new compounds.
(§3) Skin diploid fibroblastic cells were provided by BIOPREDIC International Company (Rennes, France). Huh-7D12 (Ref ECACC: 01042712), Caco2 (Ref ECACC: 86010202), MDA-MB-231 (Ref ECACC: 92020424), MDA-MB-468, HCT-116 (Ref ECACC: 91091005), PC3 (Ref ECACC: 90112714), and MCF7 cell lines were obtained from the ECACC collection. PANC1 cell lines, a generous gift of LBAI Inserm 1227 (Brest, France). Cells were grown according to ECACC recommendations in DMEM for Huh-D12, MDA-MB-231, MDA-MB-468 and fibroblast, in EMEM for Caco2, in McCoy’s for HCT-116 and RPMI for PC3 at 37 °C and 5% CO2. All culture media with 10% of FBS, 1% of penicillin-streptomycin and 2 mM glutamine.
(§4) Chemicals were solubilized in DMSO at a concentration of 10 mM (stock solution) and diluted in a culture medium to the desired final concentrations. […] The toxicity test of the chemicals on these cells was as follows: 2 × 10^3 cells for HCT-116 cells or 4 × 10^3 for the other cells were seeded in 96-multi-well plates in triplicate and left for 24 h for attachment, spreading and growing. Then, cells were exposed for 48 h to increasing concentrations of chemicals, ranging from 0.1 μM to 25 μM, in a final volume of 120 μL of culture medium. After 48 h of treatment, cells were washed in PBS and fixed in a cooled 90% ethanol/5% acetic acid solution for 20 min. The nuclei were stained with Hoechst 3342 (B2261 Merck Sigma-Aldrich) and counted. Image acquisition and analysis were performed using automated imaging analysis with a Cellomics Arrayscan VTI/HCS Reader (Thermo/Scientific, Waltham, MA, USA). The survival percentages were calculated as the percentage of cell number after chemical treatment over cell number after DMSO treatment. The IC50 was graphically determined.

MDA MB468 = experiment: Antiproliferative assay, MDA MB468; type: cell-based, human
Description: as §1, §2, §3, §4

PC3 = experiment: Antiproliferative assay, PC3; type: cell-based, human
Description: as §1, §2, §3, §4

Fibroblasts = experiment: Antiproliferative assay, diploid skin fibroblasts (normal cells); type: cell-based; conditions: Fibroblast; 48 h incubation; average of three assays, standard error ± 0.5 μM
Description: as §1, §2, §3, §4

[1] = test system: Store-Operated Ca^+2 Entry (SOCE); experiment: SOCE and Ca2+ release assay in B cell line (PLP cell line); type: cell-based; conditions: same protocol
Description: Thapsigargin (TG), an inhibitor of endoplasmic reticulum Ca^+2-ATPase, is used to deplete intracellular calcium stores in a Ca^+2-free solution and therefore activate SOCE. […] In the context of a preliminary exploration of the functional effects of our molecules of interest and in the absence of a significant inhibition at a low concentration of compound 10h on the reference cell line we used (HEK293) no further exploration of the modulatory effect of this compound on cancer cell lines was initiated.

[2] = test system: zebrafish Danio rerio embryos; experiment: Zebrafish embryo toxicity assay (Zebratox, FET)
Description: Fertilized eggs at 24–48 h post-fertilization (hpf) were selected and transferred to a 96-well plate (1 embryo/well). […] DMSO (0.6%) was used as vehicle control for the test compounds. The exposure duration continued up to 72 hpf because it is the endpoint of embryonic development [41]. The dead embryos were eliminated, and the fertilized eggs were imaged at 0, 24, 48 and 72 hpf.
Eggs were collected 2 h post-fertilization (hpf) and kept in glass Petri dishes containing water for subsequent examination under a binocular microscope to confirm fertilization. […] Chemical treatments were performed by adding DMSO alone (negative control), or test molecule. These experiments were performed in four technical replicates.
The experiments were performed using a Zeiss inverted fluorescent microscope (Observer Z1). The zebrafish toxicological test (Zebratox) was realized as follows: the 24 h post-fertilization embryos were arrayed by hand with one embryo per well in black-walled 96-well microplates for fluorescence assays (Perkin Elmer, Waltham, MA, USA). The embryos were treated before hatching from 0 to 72 h post-fertilization. The 20 mM DMSO stock chemicals were diluted in fish water and added to the wells at final concentrations from 0.0 2µM to 5 μM. The negative control (0.25% DMSO) was added to each replicate plate. The experiments were realized in triplicate in three independent plates. […] The zebrafish fertilized eggs were provided by the ImPACcell-Biosit Zebrafish facilities (Rennes, France).

[3] = 48 and 72 hpf treatment, up to 5 μM

COc1cccc2c1Oc1ncn(/N=C/c3ccccc3O)c(=N)c1C2 [10h, (3E) 3-N-(2-Hydroxyphenylmethylidene)amino-4-imino-9-methoxy-3,5-dihydro-4H-chromeno[2,3-d]pyrimidine]
IC50 (Huh7 D12; Homo sapiens, Huh-7D12, 48 h incubation, average of three assays, standard error ± 0.5 μM): 0.23 µM
Selectivity Index (SI) Huh7 D12 (Huh7 D12; SI = IC50 fibroblasts/IC50 on Huh7 D12): > 108.7
IC50 (MDA MB468; Homo sapiens, MDA-MB-468, 48 h incubation, average of three assays, standard error ± 0.5 μM): 0.24 µM
Selectivity Index (SI) MDA MB468 (MDA MB468; SI = IC50 fibroblasts/IC50 on MDA MB468): > 104.2
IC50 (PC3; Homo sapiens, PC-3, 48 h incubation, average of three assays, standard error ± 0.5 μM): 0.24 µM
Selectivity Index (SI) PC3 (PC3; SI = IC50 fibroblasts/IC50 on PC3): > 104.2
IC50 (Fibroblasts): > 25 µM
inhibitory effects on SOCE and Ca2+ release [1]: without detecting any inhibitory effects on SOCE and Ca^2+ release; also recorded: no inhibitory effects on SOCE and Ca^+2 release
hatching of the embryos ([2]; 5 μM dose at 72 hpf): complete hatching
toxic effect on zebrafish embryos ([2]; 5 μM dose at 72 hpf): no toxic effect; also recorded: without toxic effect
hatching of the embryos [2, 3]: complete hatching
toxic effect on zebrafish embryos [2, 3]: no toxic effect
